Reference: ChEMBL document CHEMBL1201862, “PubChem BioAssay data set” (2004)
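Each compound was tested at five concentrations against cells in 96-well plates for 48 hours. Abbreviation: GI50, concentration required for 50% inhibition of growth.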 Active and inactive are the calls of the source. Rule as the data show it: active = GI50 up to about 1.1 µM and inactive = higher.

What was measured:
Test in all cases: NCI anticancer screen, dose series, 48 h
[1] = system: ACHN
[2] = system: EKVX
[3] = system: HL-60
[4] = system: HOP-62
[5] = system: HOP-92
[6] = system: IGROV-1
[7] = system: K562
[8] = system: LOX IMVI
[9] = system: M14
[10] = system: MDA-N
[11] = system: NCI-H522
[12] = system: NCI/ADR-RES
[13] = system: OVCAR-8
[14] = system: RXF 393
[15] = system: SK-MEL-5
[16] = system: SK-OV-3
[17] = system: SN12C
[18] = system: TK-10
[19] = system: UO-31

Compound	GI50 [1]	GI50 [2]	GI50 [3]	GI50 [4]	GI50 [5]	GI50 [6]	GI50 [7]	GI50 [8]	GI50 [9]	GI50 [10]	GI50 [11]	GI50 [12]	GI50 [13]	GI50 [14]	GI50 [15]	GI50 [16]	GI50 [17]	GI50 [18]	GI50 [19]
CC(C)=CCc1c(O)c(CC=C(C)C)c2oc(-c3ccc(O)cc3O)c(CC=C(C)C)c(=O)c2c1O	7.62 µM (inactive)	12.4 µM (inactive)	7.06 µM (inactive)	9.06 µM (inactive)	8.26 µM (inactive)	10.6 µM (inactive)	4.05 µM (inactive)	5.26 µM (inactive)	8.83 µM (inactive)	7.82 µM (inactive)	7.31 µM (inactive)	12.3 µM (inactive)	4.88 µM (inactive)	4.99 µM (inactive)	10.8 µM (inactive)	13.3 µM (inactive)	8.59 µM (inactive)	8.85 µM (inactive)	8.22 µM (inactive)
O=C(O)C(Cc1cccs1)C(=O)O	> 100 µM (inactive)	> 100 µM (inactive)	> 100 µM (inactive)	> 100 µM (inactive)	> 100 µM (inactive)	> 100 µM (inactive)	> 100 µM (inactive)	> 100 µM (inactive)	> 100 µM (inactive)	> 100 µM (inactive)	> 100 µM (inactive)	> 100 µM (inactive)	> 100 µM (inactive)	> 100 µM (inactive)	> 100 µM (inactive)	> 100 µM (inactive)	> 100 µM (inactive)	> 100 µM (inactive)	> 100 µM (inactive)
COC(=O)[C@]12CC[C@H]3CN(C(=O)OCc4ccccc4)[C@H]([C@H]31)[C@H](c1ccccc1)N2	92 µM (inactive)	53.5 µM (inactive)	39.6 µM (inactive)	> 100 µM (inactive)	72.3 µM (inactive)	> 100 µM (inactive)	58.1 µM (inactive)	> 100 µM (inactive)	70 µM (inactive)	57.3 µM (inactive)	52.1 µM (inactive)	64.6 µM (inactive)	78.9 µM (inactive)	59.6 µM (inactive)	22.9 µM (inactive)	> 100 µM (inactive)	> 100 µM (inactive)	> 100 µM (inactive)	67.3 µM (inactive)
N#CC(C#N)=C1C(C#N)=C(N)NC12OCCO2	> 100 µM (inactive)	> 100 µM (inactive)	> 100 µM (inactive)	> 100 µM (inactive)	> 100 µM (inactive)	> 100 µM (inactive)	> 100 µM (inactive)	> 100 µM (inactive)	> 100 µM (inactive)	> 100 µM (inactive)	> 100 µM (inactive)	> 100 µM (inactive)	> 100 µM (inactive)	> 100 µM (inactive)	> 100 µM (inactive)	> 100 µM (inactive)	> 100 µM (inactive)	> 100 µM (inactive)	> 100 µM (inactive)
Cc1ccc(N2CN3OC(=O)N(c4ccccc4)[C@@]3(c3ccccc3)C2)cc1	39.4 µM (inactive)	45.7 µM (inactive)	26.2 µM (inactive)	36.1 µM (inactive)	16.9 µM (inactive)	33 µM (inactive)	22.3 µM (inactive)	37.5 µM (inactive)	65.5 µM (inactive)	33.6 µM (inactive)	10.1 µM (inactive)	29 µM (inactive)	57 µM (inactive)	25.1 µM (inactive)	31.3 µM (inactive)	40.6 µM (inactive)	42.2 µM (inactive)	50.5 µM (inactive)	57.4 µM (inactive)
C1CSCCSCCCSCCSCCCSCCSCCCSCCSC1	> 100 µM (inactive)	> 100 µM (inactive)	> 100 µM (inactive)	> 100 µM (inactive)	> 100 µM (inactive)	> 100 µM (inactive)	> 100 µM (inactive)	> 100 µM (inactive)	> 100 µM (inactive)	> 100 µM (inactive)	> 100 µM (inactive)	> 100 µM (inactive)	> 100 µM (inactive)	> 100 µM (inactive)	> 100 µM (inactive)	> 100 µM (inactive)	> 100 µM (inactive)	> 100 µM (inactive)	> 100 µM (inactive)
CCCC(=O)Oc1c2ccsc2c(OC(=O)CCC)c2ccsc12	2.23 µM (inactive)	2.27 µM (inactive)	1.08 µM (active)	0.536 µM (active)	1.1 µM (active)	4.18 µM (inactive)	1.24 µM (inactive)	0.594 µM (active)	1.57 µM (inactive)	0.371 µM (active)	2.26 µM (inactive)	1.04 µM (active)	0.407 µM (active)	3.05 µM (inactive)	0.804 µM (active)	0.75 µM (active)	1.11 µM (active)	4.48 µM (inactive)	2.53 µM (inactive)
COC(=O)CCc1cc(O)c2c(c1)C(C(=O)OC)C(c1ccc(O)c(O)c1)O2 (centres undefined)	33.7 µM (inactive)	34.4 µM (inactive)	2.55 µM (inactive)	15.1 µM (inactive)	44 µM (inactive)	12.1 µM (inactive)	2.61 µM (inactive)	8.04 µM (inactive)	13.9 µM (inactive)	1.9 µM (inactive)	12.6 µM (inactive)	42.3 µM (inactive)	21.8 µM (inactive)	18.7 µM (inactive)	4.06 µM (inactive)	33.6 µM (inactive)	21.9 µM (inactive)	53.1 µM (inactive)	26.2 µM (inactive)
COC(=O)/C=C1/OC(c2ccccc2)=CC1=O	13.5 µM (inactive)	17.9 µM (inactive)	2.24 µM (inactive)	21.6 µM (inactive)	22.9 µM (inactive)	16 µM (inactive)	12 µM (inactive)	16.2 µM (inactive)	23.3 µM (inactive)	17.3 µM (inactive)	16.9 µM (inactive)	23.2 µM (inactive)	15 µM (inactive)	14.5 µM (inactive)	19.9 µM (inactive)	17.5 µM (inactive)	19 µM (inactive)	18.6 µM (inactive)	17.8 µM (inactive)
COc1cc(/N=C\N(C)C)c2ncccc2c1	> 100 µM (inactive)	> 100 µM (inactive)	26.8 µM (inactive)	> 100 µM (inactive)	32.1 µM (inactive)	33.9 µM (inactive)	15.8 µM (inactive)	44.4 µM (inactive)	48.8 µM (inactive)	20.4 µM (inactive)	68.9 µM (inactive)	45.4 µM (inactive)	51.8 µM (inactive)	75.3 µM (inactive)	52.1 µM (inactive)	> 100 µM (inactive)	> 100 µM (inactive)	> 100 µM (inactive)	52 µM (inactive)
O=C(O)c1cccc(C(=O)O)c1[S+]([O-])Cc1ccccc1 (centres undefined)	> 100 µM (inactive)	> 100 µM (inactive)	> 100 µM (inactive)	> 100 µM (inactive)	> 100 µM (inactive)	> 100 µM (inactive)	> 100 µM (inactive)	> 100 µM (inactive)	> 100 µM (inactive)	> 100 µM (inactive)	> 100 µM (inactive)	> 100 µM (inactive)	> 100 µM (inactive)	> 100 µM (inactive)	> 100 µM (inactive)	> 100 µM (inactive)	> 100 µM (inactive)	> 100 µM (inactive)	> 100 µM (inactive)
